Patent US7582610B2, “Melanocortin receptor templates, peptides and use thereof” (priority 2003, dated 2009)
Where a SMILES comes first, the peptide text is derived from it. Bridges are numbered along the chain shown (N, C = ends). [ ]: non-standard residue; d: D form. Nle = CCCC[C@H](N)C(=O)O; Dap = NC[C@H](N)C(=O)O

What was measured:
mMC4R [1] = target: T1, mMC4R (Mus musculus, UniProt P56450); assay: Functional bioassay, CRE/β-galactosidase reporter in HEK-293 cells stably expressing mMC4R
Description: (§1) 5,000 to 15,000 post transfection cells were plated into 96 well Primera plates (Falcon) and incubated overnight. […] The assay media was aspirated and 50 μL of lysis buffer (250 mM Tris-HCl pH=8.0 and 0.1% Triton X-100) was added. The plates were stored at −80° overnight.
(§2) The plates containing the cell lysates were thawed the following day. Aliquots of 10 μL were taken from each well and transferred to another 96-well plate for relative protein determination. To the cell lysate plates, 40 μL phosphate-buffered saline with 0.5% BSA was added to each well. Subsequently, 150 μL substrate buffer (60 mM sodium phosphate, 1 mM MgCl2, 10 mM KCl, 5 mM β-mercaptoethanol, 200 mg/100 mL ONPG) was added to each well and the plates were incubated at 37°.
(§3) The sample absorbance, OD405, was measured using a 96 well plate reader (Molecular Devices). The relative protein was determined by adding 200 μL 1:5 dilution Bio Rad G250 protein dye:water to the 10 μL cell lysate sample taken previously, and the OD595 was measured on a 96 well plate reader (Molecular Devices). Data points were normalized both to the relative protein content and non-receptor dependent forskolin stimulation.
(§4) For data analysis, EC50 and pA2 values represent the mean of duplicate experiments performed in triplet, quadruplet or more independent experiments.

mMC3R [2] = target: T2, mMC3R (Mus musculus, UniProt P33033); assay: Functional bioassay, CRE/β-galactosidase reporter in HEK-293 cells stably expressing mMC3R; settings: for pharmacology in words at mMC3R: slight agonist = some stimulatory response at 100 μM, not enough to determine an EC50
Description: as §1, §2, §3, §4

mMC3R [3] = target: T2, mMC3R; assay: Receptor binding study, competitive displacement of 125I-NDP-MSH at mMC3R; design: expressed in transfected cells; settings: peptide at 10 μM
mMC1R = mMC1R (Mus musculus, UniProt Q01727); assay: Functional bioassay, CRE/β-galactosidase reporter in HEK-293 cells stably expressing mMC1R; settings: for pharmacology in words at mMC1R: slight agonist = some stimulatory response at 100 μM, not enough to determine an EC50
Description: as §1, §2, §3, §4

mMC4R [4] = target: T1, mMC4R; assay: Receptor binding study, competitive displacement of 125I-NDP-MSH at mMC4R; design: expressed in transfected cells; settings: peptide at 10 μM
mMC5R = mMC5R (Mus musculus, UniProt P41149); assay: Functional bioassay, CRE/β-galactosidase reporter in HEK-293 cells stably expressing mMC5R; settings: for pharmacology in words at mMC5R: slight agonist = some stimulatory response at 100 μM, not enough to determine an EC50
mMC5R, sequence (P41149 whole entry): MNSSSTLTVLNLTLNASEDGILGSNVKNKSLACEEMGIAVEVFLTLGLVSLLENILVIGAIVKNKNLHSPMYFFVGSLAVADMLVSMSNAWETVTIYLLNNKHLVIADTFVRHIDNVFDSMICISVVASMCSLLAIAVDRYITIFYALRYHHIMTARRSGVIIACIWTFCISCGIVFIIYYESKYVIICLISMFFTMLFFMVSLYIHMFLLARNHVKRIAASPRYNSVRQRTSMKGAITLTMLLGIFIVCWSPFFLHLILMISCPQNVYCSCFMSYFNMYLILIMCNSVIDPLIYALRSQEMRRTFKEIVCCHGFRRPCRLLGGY
Description: as §1, §2, §3, §4

T2 sequence (P33033 whole entry): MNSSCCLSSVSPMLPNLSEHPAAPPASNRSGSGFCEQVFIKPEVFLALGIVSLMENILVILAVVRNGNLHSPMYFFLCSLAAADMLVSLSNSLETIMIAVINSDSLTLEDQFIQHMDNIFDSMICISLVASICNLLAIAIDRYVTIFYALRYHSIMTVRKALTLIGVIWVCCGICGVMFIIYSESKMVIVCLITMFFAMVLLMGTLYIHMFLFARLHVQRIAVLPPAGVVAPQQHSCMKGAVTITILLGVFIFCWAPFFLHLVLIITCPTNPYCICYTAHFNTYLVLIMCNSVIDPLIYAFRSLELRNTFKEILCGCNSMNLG
T1 sequence (P56450 whole entry): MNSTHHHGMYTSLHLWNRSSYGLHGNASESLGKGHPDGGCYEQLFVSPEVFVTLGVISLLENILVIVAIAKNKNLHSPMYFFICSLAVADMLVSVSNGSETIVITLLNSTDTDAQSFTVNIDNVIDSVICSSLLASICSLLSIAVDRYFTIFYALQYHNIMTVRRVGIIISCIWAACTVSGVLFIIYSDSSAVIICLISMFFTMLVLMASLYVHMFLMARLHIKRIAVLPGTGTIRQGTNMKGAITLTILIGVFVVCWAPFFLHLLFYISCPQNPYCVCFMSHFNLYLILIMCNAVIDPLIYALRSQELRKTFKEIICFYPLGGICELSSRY
mMC1R, sequence (Q01727 whole entry): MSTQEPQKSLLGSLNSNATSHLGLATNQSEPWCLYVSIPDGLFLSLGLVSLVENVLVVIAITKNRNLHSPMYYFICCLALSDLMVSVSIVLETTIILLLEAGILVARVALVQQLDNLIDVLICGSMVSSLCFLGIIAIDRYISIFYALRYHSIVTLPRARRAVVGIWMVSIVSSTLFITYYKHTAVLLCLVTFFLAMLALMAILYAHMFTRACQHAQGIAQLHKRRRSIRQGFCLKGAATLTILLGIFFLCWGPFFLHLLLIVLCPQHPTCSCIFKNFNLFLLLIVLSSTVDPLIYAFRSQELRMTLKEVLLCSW

SMILES | EC50 (mMC4R [1]) [µM] | pharmacology in words at mMC3R (mMC3R [2]) | specific binding at mMC3R (displacement of 125I-NDP-MSH) (mMC3R [3]) | EC50 (mMC1R) [µM] | EC50 (mMC3R [2]) [µM] | EC50 (mMC5R) [µM] | pharmacology in words at mMC1R (mMC1R) | further results
C[C@@H]1NC(=O)[C@H](CC(N)=O)NC(=O)[C@H](Cc2c[nH]c3ccccc23)NC(=O)[C@H](CCCNC(=N)N)NC(=O)[C@@H](Cc2ccccc2)NC(=O)[C@@H](NC(=O)[C@@H](N)Cc2ccc(O)cc2)CC(=O)NC[C@@H](C(=O)N[C@@H](Cc2ccc(O)cc2)C(N)=O)NC(=O)[C@H](Cc2ccccc2)NC1=O [SEQ ID NO: 7, Tyr-c[Asp-DPhe-Arg-Trp-Asn-Ala-Phe-Dpr]-Tyr] (H-YD[dF]RWNAF[Dap]Y-NH2; lactam 2-9) | 0.45 | Slight agonist | ≤ 25% | – | – | – | – | MC4R versus MC3R selective (mMC4R [1]; agonist EC50 ratio): > 200 fold
C[C@@H]1NC(=O)[C@H](CC(N)=O)NC(=O)[C@H](Cc2ccccc2)NC(=O)[C@H](Cc2ccccc2)NC(=O)[C@H](CCCNC(=N)N)NC(=O)[C@H](Cc2c[nH]cn2)NC(=O)[C@@H](NC(=O)[C@@H](N)Cc2ccc(O)cc2)CC(=O)NC[C@@H](C(=O)N[C@@H](Cc2ccc(O)cc2)C(N)=O)NC(=O)[C@H](Cc2ccccc2)NC1=O [SEQ ID NO: 8] (H-YDHRFFNAF[Dap]Y-NH2; lactam 2-10) | – | Slight agonist | less than 50% | – | – | – | – | decreased mMC1R agonist potency (mMC1R; compared with SEQ ID NO:3): 8 fold; specific binding at mMC4R (displacement of 125I-NDP-MSH) (mMC4R [4]): less than 50%
CCCC[C@H](NC(=O)[C@H](CO)NC(=O)[C@H](Cc1ccc(O)cc1)NC(=O)[C@H](CO)NC(C)=O)C(=O)N[C@@H](CCC(=O)O)C(=O)N[C@@H](Cc1c[nH]cn1)C(=O)N[C@@H](C)C(=O)N[C@@H](C)C(=O)N[C@@H](C)C(=O)NCC(=O)N[C@@H](CCCCN)C(=O)N1CCC[C@H]1C(=O)N[C@H](C(N)=O)C(C)C [SEQ ID NO: 12] (Ac-SYS[Nle]EHAAAGKPV-NH2) | > 100 | – | ≤ 25% | > 100 | > 100 | > 100 | – | –
CCCC[C@H](NC(=O)[C@H](CO)NC(=O)[C@H](Cc1ccc(O)cc1)NC(=O)[C@H](CO)NC(C)=O)C(=O)N[C@@H](CCC(=O)O)C(=O)N[C@@H](Cc1c[nH]cn1)C(=O)N[C@@H](Cc1ccccc1)C(=O)N[C@@H](Cc1ccccc1)C(=O)N[C@@H](CCCNC(=N)N)C(=O)NCC(=O)N[C@@H](CCCCN)C(=O)N1CCC[C@H]1C(=O)N[C@H](C(N)=O)C(C)C [SEQ ID NO: 14] (Ac-SYS[Nle]EHFFRGKPV-NH2) | > 100 | Partial agonist | – | – | – | – | Partial agonist | pharmacology in words at mMC5R (mMC5R): Partial agonist
CCCC[C@H](NC(=O)[C@H](CO)NC(=O)[C@H](Cc1ccc(O)cc1)NC(=O)[C@H](CO)NC(C)=O)C(=O)N[C@@H](CCC(=O)O)C(=O)N[C@@H](Cc1c[nH]cn1)C(=O)N[C@H](CCCNC(=N)N)C(=O)N[C@@H](Cc1ccccc1)C(=O)N[C@@H](Cc1ccccc1)C(=O)NCC(=O)N[C@@H](CCCCN)C(=O)N1CCC[C@H]1C(=O)N[C@H](C(N)=O)C(C)C [SEQ ID NO: 16, Ac-Ser-Tyr-Ser-Nle-Glu-His-DArg-Phe-Phe-Gly-Lys-Pro-Val] (Ac-SYS[Nle]EH[dR]FFGKPV-NH2) | > 100 | – | – | – | > 100 | – | Slight agonist | pharmacology in words at mMC5R (mMC5R): Slight agonist
CCCC[C@H](NC(=O)[C@H](CO)NC(=O)[C@H](Cc1ccc(O)cc1)NC(=O)[C@H](CO)NC(C)=O)C(=O)N[C@@H](CCC(=O)O)C(=O)N[C@@H](Cc1c[nH]cn1)C(=O)N[C@@H](CCCNC(=N)N)C(=O)N[C@H](Cc1ccccc1)C(=O)N[C@@H](Cc1ccccc1)C(=O)NCC(=O)N[C@@H](CCCCN)C(=O)N1CCC[C@H]1C(=O)N[C@H](C(N)=O)C(C)C [SEQ ID NO: 17, Ac-Ser-Tyr-Ser-Nle-Glu-His-Arg-DPhe-Phe-Gly-Lys-Pro-Val] (Ac-SYS[Nle]EHR[dF]FGKPV-NH2) | – | – | – | – | – | – | – | MC1R versus MC3R selective (mMC1R; agonist EC50 ratio): 850 fold; MC1R versus MC5R selective (mMC1R; agonist EC50 ratio): 62 fold; increase in mMC1R agonist potency (mMC1R; compared with SEQ ID NO:15): 8 fold; pharmacology in words at mMC4R (mMC4R [1]; slight agonist = some stimulatory response at 100 μM, not enough to determine an EC50): Slight agonist; decreased mMC3R agonist potency (mMC3R [2]; compared with SEQ ID NO:15): 13 fold; specific binding at mMC4R (displacement of 125I-NDP-MSH) (mMC4R [4]): ≤ 25%
CCCC[C@H](NC(C)=O)C(=O)N[C@H]1CC(=O)NCCCC[C@@H](C(N)=O)NC(=O)[C@H](C)NC(=O)[C@H](C)NC(=O)[C@H](C)NC(=O)[C@H](Cc2c[nH]cn2)NC1=O [SEQ ID NO: 19, Ac-Nle-c[Asp-His-Ala-Ala-Ala-Lys]] (Ac-[Nle]DHAAAK-NH2; lactam 2-7) | > 100 | – | – | > 100 | > 100 | > 100 | – | –
CCCC[C@H](NC(C)=O)C(=O)N[C@H]1CC(=O)NCCCC[C@@H](C(N)=O)NC(=O)[C@H](Cc2ccccc2)NC(=O)[C@H](Cc2ccccc2)NC(=O)[C@H](CCCNC(=N)N)NC(=O)[C@H](Cc2c[nH]cn2)NC1=O [SEQ ID NO: 20, Ac-Nle-c[Asp-His-Arg-Phe-Phe-Lys]] (Ac-[Nle]DHRFFK-NH2; lactam 2-7; C-terminus assumed) | > 100 | – | – | – | > 100 | > 100 | Partial agonist | –
CCCC[C@H](NC(C)=O)C(=O)N[C@H]1CC(=O)NCCCC[C@@H](C(N)=O)NC(=O)[C@H](Cc2ccccc2)NC(=O)[C@H](Cc2ccccc2)NC(=O)[C@@H](CCCNC(=N)N)NC(=O)[C@H](Cc2c[nH]cn2)NC1=O [SEQ ID NO: 21, Ac-Nle-c[Asp-His-DArg-Phe-Phe-Lys]] (Ac-[Nle]DH[dR]FFK-NH2; lactam 2-7) | > 100 | – | – | > 100 | > 100 | > 100 | – | –
